Like-named read-outs stand apart in the source and are kept apart here.
Columns and labels:
[1] = tested on: thrombus formation in the carotid artery (70% FeCl3 patch); test: Anti-thrombotic activity, FeCl3-induced carotid artery thrombosis; type: in vivo, Male Wistar rats; conditions: % animals protected; for responders at 90 µmol/kg / Antithrombotic activity (% protection): 90 μmol/kg p.o.
Description: Anti-Thrombotic Activity Assessment Experimental Procedure Male Wistar rats weighing 250-300 g were used after an acclimatization period of five days, and animals were divided in groups of 8 animals each for the treatments. […] The vehicle used to dissolve the products consisted of 1% Cremophor EL 27963, 1% Tween 80 and 0.5% Methocel E-15 in distilled water. After a fasting period of 8 hours with free access to drinking water each product was given by gavage 1 hour before induction of thrombosis. Thrombus formation was induced using a patch embedded with 70% FeCl3 solution applied onto the carotid artery using the same procedure described by Feuerstein G Z et al and later modified by Kurz et al (Feuerstein G Z, et al Artherioscler. Thromb. Vasc. Biol. 1999, 19: 2554-2562, Kurz K D, et al Thromb. Res. 1990, 60:269-280). Anti-thrombotic efficacy was evaluated at different times after dosage. Rats were anesthetized with sodium pentobarbital and then placed on a dorsal position over a thermal blanket laid on a surgical board and heated at 37° C. The left carotid artery was dissected and an electromagnetic blood flow probe was placed on the artery to measure blood flow. After application of the thrombotic stimuli, blood flow was monitored for the following 30 minutes. The vessel was considered occluded by the thrombus when flow reached 0.0 ml/min. Data were analysed by contingency tables using the Graph Pad Prism Program. P values were calculated using Fisher's exact test, values of p<0.05 were considered statistically significant. Results were expressed as % animals protected.

[2] = tested on: coronary angina caused by coronary obstruction (35% ferric chloride patch on left anterior descending coronary artery); test: Anti-anginal activity, ferric chloride-induced coronary angina (ECG S-wave); type: in vivo, Male Wistar rats; conditions: Rattus norvegicus, po, read-out: Antianginal activity (% inhibition of S-wave decrease)
Description: Anti-Anginal Activity Assessment
Male Wistar rats weighing 250-300 g were used after an acclimatization period of five days, and animals were divided in groups of 8 for each treatment. In all experiments, rats were treated with 90 μmol/kg of each product by oral gavage using an administration volume of 10 ml/kg unless otherwise stated. The vehicle used to dissolve the products consisted of 1% Cremophor EL 27963, 1% Tween 80 and 0.5% Methocel E-15 in distilled water. […]
The procedure used to test the anti-anginal activity was that described by Hirata Y et al (Hirata Y, et al. Journal of Cardiovascular Pharmacology 1998, 31: 322-326).
After treatment, animals were anaesthetized with pentobarbital and electrodes were set for standard limb lead II electrocardiogram recording (Grass polygraph model 7, amplifier 7DA and pre-amplifier 7P1).
To induce coronary angina caused by coronary obstruction, a 35%-ferric chloride embedded mini patch was applied onto the left anterior descending coronary artery just below the left auricle. In all groups, after application of the patch, the ECG was recorded during 10 minutes. The shortening of the S-wave amplitude was measured on the recorded ECG. Data were collected with a Biopac system model MP100 connected to a Pentium PC. Results were expressed as % inhibition of S-wave decrease vs the untreated control.

[3] = Rattus norvegicus, po, 4 h, 4 h after dosage, read-out: Antithrombotic activity (% protection)
[4] = Rattus norvegicus, po, 2 h, 2 h after dosage, read-out: Antithrombotic activity (% protection)
[5] = 1 h, rat, 90 μmol/kg p.o., 1 h, vs untreated control
[6] = Rattus norvegicus, po, 1 h, 1 h after dosage, read-out: Antithrombotic activity (% protection)
[7] = Rattus norvegicus, po, 0.5 h, ½ h after dosage, read-out: Antithrombotic activity (% protection)
[8] = 4 h, rat, 90 μmol/kg p.o., 4 h, vs untreated control

In the case of `CC[S+]([O-])[C@@H]1CO[C@H]2[C@@H]1OC[C@H]2O[N+](=O)[O-]` (single isomer, unassigned) [Ej. 13 isom 1], the responders at 90 µmol/kg [1, 3] is reported as 16% and the “Antithrombotic activity (% protection)” value ([1]; rat, 1 h after dosage) is reported as 32%.

`CC[S+]([O-])[C@@H]1CO[C@H]2[C@@H]1OC[C@H]2O[N+](=O)[O-]` (single isomer, unassigned) [Ej. 13 isom 2] was tested, and the “Antithrombotic activity (% protection)” value ([1]; rat, 1 h after dosage) was 83% and the “Antithrombotic activity (% protection)” value ([1]; rat, 4 h after dosage) was 16%.

In the case of `O=[N+]([O-])O[C@@H]1CO[C@H]2[C@@H]1OC[C@@H]2S` [Comp 1, (3R,3aS,6S,6aS)-6-(mercapto)hexahydrofuro[3,2-b]furan-3-yl nitrate, reference compound], the responders at 230 µmol/kg ([1]; Rattus norvegicus, po, 1 h, 230 μmol/kg p.o., 1 h after dosage, read-out: Antithrombotic activity (% protection)) is reported as 50%, the responders at 90 µmol/kg [1, 4] is reported as 32% and the responders at 90 µmol/kg [1, 3] is reported as 16%. The inhibition in vivo at 90 µmol/kg ([2]; 0.5 h, rat, 90 μmol/kg p.o., ½ h, vs untreated control) was 0%, the inhibition in vivo at 90 µmol/kg [2, 5] was 0% and the inhibition in vivo at 90 µmol/kg ([2]; 2 h, rat, 90 μmol/kg p.o., 2 h, vs untreated control) was 50%.

`O=[N+]([O-])O[C@@H]1CO[C@H]2[C@@H]1OC[C@@H]2SCc1ccccc1` [Comp 2, (3R,3aS,6S,6aS)-6-(benzylthio)hexahydrofuro[3,2-b]furan-3-yl nitrate, reference compound] gave a responders at 90 µmol/kg [1, 6] of 33%.

In the case of `CCOC(=O)CS[C@H]1CO[C@H]2[C@@H]1OC[C@H]2O[N+](=O)[O-]` [Comp 3, Ethyl 2-((3S,3aS,6R,6aS)-6-(nitrooxy)hexahydrofuro[3,2-b]furan-3-ylthio)acetate, reference compound], the responders at 90 µmol/kg [1, 6] is reported as 32%.

`O=[N+]([O-])O[C@@H]1CO[C@H]2[C@@H]1OC[C@@H]2[S+]([O-])Cc1ccccc1` (stereo partly drawn) [Comp 4, (3R,3aS,6S,6aS)-6-((R,S)-benzylsulfinyl)hexahydrofuro[3,2-b]furan-3-yl nitrate, reference compound] gave a responders at 90 µmol/kg [1, 6] of 20%, a responders at 90 µmol/kg [1, 4] of 0% and a responders at 90 µmol/kg [1, 3] of 0%.

Compound `CCOC(=O)C[S+]([O-])[C@H]1CO[C@H]2[C@@H]1OC[C@H]2O[N+](=O)[O-]` (stereo partly shown) [Comp 5, reference compound] has a responders at 90 µmol/kg [1, 6] of 16%, a responders at 90 µmol/kg [1, 4] of 0% and a responders at 90 µmol/kg [1, 3] of 0%.

Compound `C[S@@+]([O-])[C@H]1CO[C@H]2[C@@H]1OC[C@H]2O[N+](=O)[O-]` [Comp 6, (3R,3aS,6S,6aS)-6-((R)-methylsulfinyl)hexahydrofuro[3,2-b]furan-3-yl nitrate, reference compound] has a responders at 90 µmol/kg [1, 7] of 40%, a responders at 90 µmol/kg [1, 6] of 16% and a responders at 90 µmol/kg [1, 4] of 0%. It also gave a responders at 90 µmol/kg [1, 3] of 0%, an inhibition in vivo at 90 µmol/kg [2, 5] of 48% and an inhibition in vivo at 90 µmol/kg [2, 8] of 0%.

With `C[S@+]([O-])[C@H]1CO[C@H]2[C@@H]1OC[C@H]2O[N+](=O)[O-]` [Comp 7, (3R,3aS,6S,6aS)-6-((S)-methylsulfinyl)hexahydrofuro[3,2-b]furan-3-yl nitrate, reference compound] the responders at 90 µmol/kg [1, 7] was 0%, the responders at 90 µmol/kg [1, 6] was 0% and the responders at 90 µmol/kg [1, 4] was 0%. The responders at 90 µmol/kg [1, 3] was 0% and the inhibition in vivo at 450 µmol/kg ([2]; 1 h, rat, 450 μmol/kg p.o., 1 h, vs untreated control) was 73%.

With `O=[N+]([O-])O[C@@H]1CO[C@H]2[C@@H]1OC[C@@H]2S(=O)(=O)Cc1ccccc1` [Comp 8, (3R,3aS,6S,6aS)-6-(benzylsulfonyl)hexahydrofuro[3,2-b]furan-3-yl nitrate, reference compound] the responders at 90 µmol/kg [1, 6] was 33%.

`CCCCS[C@H]1CO[C@H]2[C@@H]1OC[C@H]2O[N+](=O)[O-]` [Comp 10, (3R,3aS,6S,6aS)-6-(butylthio)hexahydrofuro[3,2-b]furan-3-yl nitrate, reference compound] showed a responders at 90 µmol/kg [1, 6] of 40%.

In the case of `CCCC[S+]([O-])[C@H]1CO[C@H]2[C@@H]1OC[C@H]2O[N+](=O)[O-]` (stereo partly drawn) [Comp 11, (3R,3aS,6S,6aS)-6-((R,S)-butylsulfinyl)hexahydrofuro[3,2-b]furan-3-yl nitrate, reference compound], the responders at 90 µmol/kg [1, 6] is reported as 32%.

With `CCCCS(=O)(=O)[C@H]1CO[C@H]2[C@@H]1OC[C@H]2O[N+](=O)[O-]` [Comp 12, (3R,3aS,6S,6aS)-6-(butylsulfonyl)hexahydrofuro[3,2-b]furan-3-yl nitrate, reference compound] the responders at 90 µmol/kg [1, 6] was 40%.

`CCS[C@H]1CO[C@H]2[C@@H]1OC[C@H]2O[N+](=O)[O-]` [Ej. 1, (3R,3aS,6S,6aS)-6-(ethylthio)hexahydrofuro[3,2-b]furan-3-yl nitrate] was tested, and the responders at 90 µmol/kg ([1]; po, rat, 1 h after dosage, read-out: Antithrombotic activity (% protection)) was 32%, the inhibition in vivo at 90 µmol/kg ([2]; 1 h) was 29% and the inhibition in vivo at 90 µmol/kg ([2]; 4 h) was 0%.

For `CCCS[C@H]1CO[C@H]2[C@@H]1OC[C@H]2O[N+](=O)[O-]` [Ej. 2, (3R,3aS,6S,6aS)-6-(propylthio)hexahydrofuro[3,2-b]furan-3-yl nitrate], the responders at 90 µmol/kg [1, 6] was 67%, the inhibition in vivo at 90 µmol/kg [2, 5] was 69% and the inhibition in vivo at 90 µmol/kg [2, 8] was 8%.

`C=CCS[C@H]1CO[C@H]2[C@@H]1OC[C@H]2O[N+](=O)[O-]` [Ej. 3, (3R,3aS,6S,6aS)-6-(allylthio)hexahydrofuro[3,2-b]furan-3-yl nitrate] gave a responders at 90 µmol/kg [1, 6] of 67%.

With `CC[S+]([O-])[C@H]1CO[C@H]2[C@@H]1OC[C@H]2O[N+](=O)[O-]` (stereo partly drawn) [Ej. 4, (3R,3aS,6S,6aS)-6-((R,S)-ethylsulfinyl)hexahydrofuro[3,2-b]-furan-3-yl nitrate] the responders at 90 µmol/kg [1, 7] was 32%, the responders at 90 µmol/kg [1, 6] was 67% and the responders at 90 µmol/kg [1, 4] was 83%. It also gave a responders at 90 µmol/kg [1, 3] of 50%, an inhibition in vivo at 90 µmol/kg [2, 5] of 84% and an inhibition in vivo at 90 µmol/kg [2, 8] of 43%.

`CCC[S+]([O-])[C@H]1CO[C@H]2[C@@H]1OC[C@H]2O[N+](=O)[O-]` (stereo partly drawn) [Ej. 5, (3R,3aS,6S,6aS)-6-((R,S)-propylsulfinyl)hexahydrofuro[3,2-b]furan-3-yl nitrate] was tested, and the responders at 90 µmol/kg [1, 7] was 40%, the responders at 90 µmol/kg [1, 6] was 76% and the responders at 90 µmol/kg [1, 4] was 67%. It also gave a responders at 90 µmol/kg [1, 3] of 50%, an inhibition in vivo at 90 µmol/kg [2, 5] of 87% and an inhibition in vivo at 90 µmol/kg [2, 8] of 58%.

With `C=CC[S+]([O-])[C@H]1CO[C@H]2[C@@H]1OC[C@H]2O[N+](=O)[O-]` (stereo partly drawn) [Ej. 6, (3R,3aS,6S,6aS)-6-((R,S)-allylsulfinyl)hexahydrofuro[3,2-b]furan-3-yl nitrate] the responders at 90 µmol/kg [1, 6] was 67%, the responders at 90 µmol/kg [1, 4] was 34% and the responders at 90 µmol/kg [1, 3] was 17%.

`CCS(=O)(=O)[C@H]1CO[C@H]2[C@@H]1OC[C@H]2O[N+](=O)[O-]` [Ej. 7, (3R,3aS,6S,6aS)-6-(ethylsulfonyl)hexahydrofuro[3,2-b]furan-3-yl nitrate] showed a responders at 90 µmol/kg [1, 7] of 50%, a responders at 90 µmol/kg [1, 6] of 84% and a responders at 90 µmol/kg [1, 4] of 32%. It also gave a responders at 90 µmol/kg [1, 3] of 0%, an inhibition in vivo at 90 µmol/kg [2, 5] of 81% and an inhibition in vivo at 90 µmol/kg [2, 8] of 23%.

For `C=CCS(=O)(=O)[C@H]1CO[C@H]2[C@@H]1OC[C@H]2O[N+](=O)[O-]` [Ej. 9, (3R,3aS,6S,6aS)-6-(allylsulfonyl)hexahydrofuro[3,2-b]furan-3-yl nitrate], the responders at 90 µmol/kg [1, 6] was 83%, the responders at 90 µmol/kg [1, 4] was 50% and the responders at 90 µmol/kg [1, 3] was 0%.
